Source: ChEMBL document CHEMBL1133070, “Novel 2,3,4,5-tetrahydro-1H-3-benzazepines with high affinity and selectivity for the dopamine D3 receptor” (Bioorg Med Chem Lett, 2000)

Columns and labels:
[1] = biological target: D(2) dopamine receptor (Homo sapiens, UniProt P14416); experiment: biochemical; assay type: cell-based, CHO
Description: Binding affinity towards human Dopamine receptor D2 by displacement of [125I]iodosulpiride expressed in CHO cells

[2] = biological target: D(3) dopamine receptor (Homo sapiens, UniProt P35462); experiment: biochemical; assay type: cell-based, CHO
D(3) dopamine receptor, sequence (P35462 whole entry): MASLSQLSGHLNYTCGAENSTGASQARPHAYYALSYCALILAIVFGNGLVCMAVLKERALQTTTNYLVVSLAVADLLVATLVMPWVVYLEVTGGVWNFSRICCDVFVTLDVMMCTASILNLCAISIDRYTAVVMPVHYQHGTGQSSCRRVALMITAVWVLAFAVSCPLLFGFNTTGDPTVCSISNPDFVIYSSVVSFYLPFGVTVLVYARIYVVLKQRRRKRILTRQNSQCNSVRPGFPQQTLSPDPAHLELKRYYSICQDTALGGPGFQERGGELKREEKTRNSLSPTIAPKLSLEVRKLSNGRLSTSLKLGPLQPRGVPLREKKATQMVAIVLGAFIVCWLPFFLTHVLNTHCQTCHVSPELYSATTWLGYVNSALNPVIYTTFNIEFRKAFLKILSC
Description: Binding affinity towards human Dopamine receptor D3 by displacement of [125I]iodosulpiride expressed in CHO cells

D(2) dopamine receptor, sequence (P14416 whole entry): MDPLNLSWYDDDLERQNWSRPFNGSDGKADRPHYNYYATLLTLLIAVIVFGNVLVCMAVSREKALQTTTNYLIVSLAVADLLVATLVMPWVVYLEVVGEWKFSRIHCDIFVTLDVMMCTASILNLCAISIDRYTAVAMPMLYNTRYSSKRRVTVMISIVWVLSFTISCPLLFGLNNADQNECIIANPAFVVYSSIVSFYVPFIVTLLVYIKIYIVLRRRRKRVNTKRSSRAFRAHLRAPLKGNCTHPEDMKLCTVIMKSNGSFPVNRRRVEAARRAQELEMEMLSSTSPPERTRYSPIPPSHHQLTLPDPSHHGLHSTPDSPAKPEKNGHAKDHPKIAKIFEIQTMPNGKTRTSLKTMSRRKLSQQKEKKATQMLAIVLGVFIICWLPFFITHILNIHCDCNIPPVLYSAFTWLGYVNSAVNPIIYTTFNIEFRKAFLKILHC

SMILES | Ki [1] [nM] | Ki [2] [nM]
N#Cc1ccc2c(c1)CCN(CC[C@H]1CC[C@H](NC(=O)/C=C/c3ccccc3F)CC1)CC2 | 631 | 10
COc1cccc(/C=C/C(=O)N[C@H]2CC[C@H](CCN3CCc4ccc(C#N)cc4CC3)CC2)c1 | 631 | 3.16
N#Cc1ccc2c(c1)CCN(CC[C@H]1CC[C@H](NC(=O)c3cccc4ccccc34)CC1)CC2 | 1260 | 20
CC(=O)Nc1cccc(/C=C/C(=O)N[C@H]2CC[C@H](CCN3CCc4ccc(C#N)cc4CC3)CC2)c1F | 501 | 3.98
N#Cc1ccc2c(c1)CCN(CC[C@H]1CC[C@H](NC(=O)c3ccc4ccc(O)nc4c3)CC1)CC2 | 501 | 10
N#Cc1ccc2c(c1)CCN(CC[C@H]1CC[C@H](NC(=O)c3ccc4ccccc4c3)CC1)CC2 | 3160 | 20
CC(=O)Nc1cccc(/C=C/C(=O)N[C@H]2CC[C@H](CCN3CCc4ccc(C#N)cc4CC3)CC2)c1 | 501 | 3.16
N#Cc1ccc2c(c1)CCN(CC[C@H]1CC[C@H](NC(=O)c3ccc4c(c3)NC(=O)CO4)CC1)CC2 | 794 | 6.31
N#Cc1ccc2c(c1)CCN(CC[C@H]1CC[C@H](NC(=O)c3cc4ccccc4[nH]3)CC1)CC2 | 316 | 15.8
N#Cc1ccc2c(c1)CCN(CC[C@H]1CC[C@H](NC(=O)c3cccc4ncccc34)CC1)CC2 | 2000 | 12.6
N#Cc1ccc2c(c1)CCN(CC[C@H]1CC[C@H](NC(=O)c3ccnc4ccccc34)CC1)CC2 | 1260 | 25.1
CC(=O)c1cccc(/C=C/C(=O)N[C@H]2CC[C@H](CCN3CCc4ccc(C#N)cc4CC3)CC2)c1 | 200 | 3.98
N#Cc1ccc2c(c1)CCN(CC[C@H]1CC[C@H](NC(=O)/C=C/c3cccc(F)c3)CC1)CC2 | 398 | 6.31
N#Cc1ccc2c(c1)CCN(CC[C@H]1CC[C@H](NC(=O)/C=C/c3ccc(F)cc3)CC1)CC2 | 398 | 6.31
